The nature of the series: collision cross section (DTIM-MS, N2); higher = larger ion. The protocol: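 Collision cross section (CCS) of drug and natural-product chemical standards (validation set 2, measured in this paper). Three independent measurements were made across 2 months; the value taken is their mean (avg_ccs), for the ion adduct given.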

This passage reports collision cross section results from the supplement of paper PMC7455731.

As for `CO[C@H]1C=CO[C@@]2(C)Oc3c(C)c(O)c4c(O)c(c(/C=N/N5CCN(C)CC5)c(O)c4c3C2=O)NC(=O)/C(C)=C\C=C/[C@H](C)[C@H](O)[C@@H](C)[C@@H](O)[C@@H](C)[C@H](OC(C)=O)[C@@H]1C` [Rifampicin], the collision cross section by setting is: (ion adduct: [M+H]+) 284.23 Å²; (ion adduct: [M-H]-) 284.94 Å². For `C[C@H]1O[C@@H](O[C@@H]2[C@@H](O)[C@H](O)[C@@H](CO)O[C@H]2c2c(O)cc(O)c3c(=O)cc(-c4ccc(O)cc4)oc23)[C@@H](O)[C@@H](O)[C@@H]1O` [Vitexin-2''-O-rhamnoside] the same measures were 221.54 Å² and 227.62 Å². For `COc1ccc(C=CC(=O)c2c(O)cc(OC)cc2OC)cc1` [Flavokawain A] the same measures were 176.36 Å² and 184.75 Å². For `COc1cc(O)cc(/C=C/c2ccc(O)cc2)c1` [Pinostilbene] the same measures were 160.07 Å² and 166.26 Å². Turning to `COC(=O)C1=CO[C@@H](O[C@@H]2O[C@H](CO)[C@@H](O)[C@H](O)[C@H]2O)[C@H]2[C@@H]1[C@H](O)C[C@]2(C)OC(C)=O` [8-O-Acetylshanzhiside methyl ester], the collision cross section (ion adduct: [M-H]-) is recorded as 208.19 Å². Still for that read-out and setting: the value for `CC(C)=CCC[C@](C)(O[C@@H]1O[C@H](CO)[C@@H](O)[C@H](O)[C@H]1O)[C@H]1CC[C@]2(C)[C@@H]1[C@H](O)C[C@@H]1[C@@]3(C)CC[C@H](O)C(C)(C)[C@@H]3CC[C@]12C` [Ginsenoside Compound K] was 257.91 Å². Turning to `CCC(C)(C)C(=O)O[C@H]1C[C@@H](C)C=C2C=C[C@H](C)[C@H](CC[C@@H]3C[C@@H](O)CC(=O)O3)[C@H]21` [Simvastatin], the collision cross section runs as follows: (ion adduct: [M+H]+) 207.6 Å²; (ion adduct: [M-H]-) 205.74 Å². In the same order, the values of `Cn1cncc1[C@@](N)(c1ccc(Cl)cc1)c1ccc2c(c1)c(-c1cccc(Cl)c1)cc(=O)n2C` [Tipifarnib] are 215.34 Å² and 215.68 Å². For `CC(=O)Nc1nnc(S(N)(=O)=O)s1` [Acetazolamide] the same measures were 142.71 Å² and 138.64 Å². Under “ion adduct: [M-H]-”, `O=C(O)C1=CO[C@@H](O[C@@H]2O[C@H](CO)[C@@H](O)[C@H](O)[C@H]2O)[C@@H]2C(CO)=CC[C@H]12` [Geniposidic acid] came in with a collision cross section of 184.17 Å². The same measure, in the same setting: the value for `COc1cc(CCC(=O)CC(=O)CCc2ccc(O)c(OC)c2)ccc1O` [Tetrahydrocurcumin] was 185.55 Å². As for `COc1cc2c3c(c1OC)-c1ccccc1C[C@H]3N(C)CC2` [Nuciferine], the collision cross section (ion adduct: [M+H]+) was 172.41 Å². Same read-out and setting: the value for `CCOC(=O)c1cc2ccccc2oc1=O` [Ethyl coumarin-3-carboxylate] was 141.92 Å². For the setting “ion adduct: [M-H]-”, `CCOC(=O)c1ccc(O)c(OC)c1` [Ethyl Vanillate] registered a collision cross section of 144.12 Å². With `O=C(O)c1ccccc1Nc1cccc(C(F)(F)F)c1` [Flufenamic acid], the collision cross section by setting is: (ion adduct: [M+H]+) 159.39 Å²; (ion adduct: [M-H]-) 160.69 Å². Regarding `O=C1CCc2ccccc2O1` [Hydrocoumarin], the collision cross section (ion adduct: [M-H]-) was 127.47 Å². `C[C@H]1CC[C@]2(OC1)O[C@H]1C[C@H]3[C@@H]4CC=C5C[C@@H](O[C@@H]6O[C@H](CO)[C@@H](O[C@@H]7O[C@@H](C)[C@H](O)[C@@H](O)[C@H]7O)[C@H](O)[C@H]6O[C@@H]6O[C@@H](C)[C@H](O)[C@@H](O)[C@H]6O)CC[C@]5(C)[C@H]4CC[C@]3(C)[C@H]1[C@@H]2C` [Dioscin]: the collision cross section worked out at 330.49 Å² (ion adduct: [M+H]+) and 324.15 Å² (ion adduct: [M-H]-).

Turning to `C=CC(C)(C)c1cc(/C=C/C(=O)c2ccc(O)cc2)c(OC)cc1O` [Licochalcone A], the collision cross section by setting is: (ion adduct: [M+H]+) 191.26 Å²; (ion adduct: [M-H]-) 194.56 Å². In the same order, the values of `COc1cc(O)c2c(c1)oc(=O)c1c3cc(O)c(O)cc3oc21` [Wedelolactone] are 167.93 Å² and 168.67 Å². For `CC=Cc1ccc(O)c(OC)c1` [Isoeugenol], for the setting “ion adduct: [M-H]-”, the collision cross section came out at 138.02 Å². The same measure, in the same setting: the value for `NC(=O)c1ncn([C@@H]2O[C@H](CO)[C@@H](O)[C@H]2O)c1O` [Mizoribine] was 155.14 Å². Still for that read-out and setting: the value for `CNC(=O)Oc1cccc2ccccc12` [Carbaryl] was 144.36 Å². As for `O=c1ccc2ccccc2o1` [Coumarin], the collision cross section (ion adduct: [M+H]+) is 124.69 Å².

Turning to `COc1cc(C=CC(=O)NCCc2ccc(O)cc2)ccc1O` [N-trans-Feruloyltyramine], the collision cross section runs as follows: (ion adduct: [M+H]+) 181.28 Å²; (ion adduct: [M-H]-) 176.36 Å². Turning to `CCCCCCCCC[C@H](O)CC(=O)CCc1ccc(O)c(OC)c1` [10-Gingerol], the collision cross section (ion adduct: [M-H]-) was 188 Å². As for `C[C@@H]1C/C=C/C=C/C=C/C=C/[C@H](O[C@@H]2O[C@H](C)[C@@H](O)[C@H](N)[C@@H]2O)C[C@@H]2O[C@](O)(C[C@@H](O)C[C@H]3O[C@@H]3/C=C/C(=O)O1)C[C@H](O)[C@H]2C(=O)O` [Pimaricin], the collision cross section was 261.06 Å² (ion adduct: [M+H]+) and 262.32 Å² (ion adduct: [M-H]-). Where the note is “ion adduct: [M+H]+”, `COc1ccc(C=Cc2cc(OC)cc(=O)o2)cc1` [yangonin] showed a collision cross section of 163.31 Å². With `C=CC[C@@H]1/C=C(/C)C[C@H](C)C[C@H](OC)[C@H]2O[C@@](O)(C(=O)C(=O)N3CCCC[C@H]3C(=O)O[C@H](/C(C)=C/[C@@H]3CC[C@@H](O)[C@H](OC)C3)[C@H](C)[C@@H](O)CC1=O)[C@H](C)C[C@@H]2OC` [Tacrolimus], the collision cross section (ion adduct: [M-H]-) was determined as 281.46 Å². The same measure, in the same setting: the value for `CC(/C=C/C=C(\C)C(=O)O[C@@H]1O[C@H](CO[C@@H]2O[C@H](CO)[C@@H](O)[C@H](O)[C@H]2O)[C@@H](O)[C@H](O)[C@H]1O)=C\C=C\C=C(C)\C=C\C=C(/C)C(=O)O[C@@H]1O[C@H](CO[C@@H]2O[C@H](CO)[C@@H](O)[C@H](O)[C@H]2O)[C@@H](O)[C@H](O)[C@H]1O` [Crocin] was 310.8 Å². On to `C[C@H]1C(=O)O[C@@H]2CCN3CC=C(COC(=O)[C@](C)(O)[C@]1(C)O)[C@H]23` [Crotaline], for which, under “ion adduct: [M+H]+”, the collision cross section amounted to 176.34 Å². Compound `C[C@@]12CCC3[C@@](CC[C@@H]4[C@](C)(C(=O)O)CCC[C@@]34C)(CC1=O)C2` (stereo not given in full) [Isosteviol] displayed a collision cross section (ion adduct: [M+H]+) of 180.22 Å² and a collision cross section (ion adduct: [M-H]-) of 180.18 Å². For `C=C(C)[C@H]1Cc2c(ccc3c2O[C@@H]2COc4cc(OC)c(OC)cc4[C@@H]2C3=O)O1` [Rotenone] the same measures were 195.49 Å² and 198.71 Å². With `C=C1C[C@]23C[C@@]1(O)CC[C@H]2[C@@]12C=C[C@H](O)[C@@](C)(C(=O)O1)[C@H]2[C@@H]3C(=O)O` [Gibberellic acid], the collision cross section (ion adduct: [M-H]-) was determined as 177.69 Å². As for `CC(C)=CCCC1(C)CCC2(C)C3CCC4(C)C(C)C(=O)CCC4C3(C)CCC2(C)C1` (stereo not given) [Shionone], the collision cross section (ion adduct: [M+H]+) turned out to be 211.34 Å². Same read-out and setting: the value for `COc1ccc(C[C@H]2NC[C@H](O)[C@H]2OC(C)=O)cc1` [Anisomycin] was 164.18 Å²; that for `CC1(C)CCC[C@@]2(C)OC(=O)C=C12` was 138.93 Å². In the case of `COc1ccc(-c2cc(=O)c3c(O)cc(O)c(-c4cc(-c5cc(=O)c6c(O)cc(O)cc6o5)ccc4OC)c3o2)cc1` [Isoginkgetin], the collision cross section runs as follows: (ion adduct: [M+H]+) 231.51 Å²; (ion adduct: [M-H]-) 230.78 Å². In the case of `COc1cc(/C=C/C(=O)O)cc(OC)c1OC` [3,4,5-Trimethoxycinnamic acid], the collision cross section (ion adduct: [M-H]-) is on record as 167.91 Å². Regarding `C=CCc1cc(OC)c(OC)c(OC)c1` [Elemicin], under “ion adduct: [M+H]+”, the collision cross section is recorded as 144.76 Å².

Turning to `C[C@@H]1O[C@@H](Oc2c(-c3cc(O)c(O)c(O)c3)oc3cc(O)cc(O)c3c2=O)[C@H](O)[C@H](O)[C@H]1O` [Myricitrin], the collision cross section (ion adduct: [M-H]-) is given as 199.23 Å². As to `C[C@]12C=CC(=O)C=C1CC[C@@H]1[C@@H]2C(=O)C[C@@]2(C)[C@H]1CC[C@]2(O)C(=O)CO` [Prednisone], the collision cross section reads like this: (ion adduct: [M+H]+) 185.04 Å²; (ion adduct: [M-H]-) 191.16 Å². As to `COc1cc(/C=C/C(=O)N2CCC=CC2=O)cc(OC)c1OC` [Piperlongumine], the collision cross section (ion adduct: [M+H]+) came to 179.46 Å². With `O=C(Nc1ccc(Cl)cc1)Nc1ccc(Cl)c(Cl)c1` [Triclocarban], the collision cross section (ion adduct: [M+H]+) amounted to 173.83 Å² and the collision cross section (ion adduct: [M-H]-) worked out at 178.67 Å².

On to `Nc1ccn(C[C@@H](CO)OCP(=O)(O)O)c(=O)n1` [Cidofovir], for which the collision cross section is reported as 157.98 Å² (ion adduct: [M+H]+) and 158.46 Å² (ion adduct: [M-H]-). For `CCC(=O)c1ccc(O)cc1` [Vanatone] the same measures were 130 Å² and 131.83 Å². For `Cc1cc(=O)oc2cc(O)cc(O)c12` [5,7-Dihydroxy-4-methylcoumarin] the same measures were 136.89 Å² and 135.28 Å². In the same order, the values of `COc1ccc(-c2cc(=O)c3c(O)cc(O)cc3o2)cc1-c1c(O)cc(O)c2c(=O)cc(-c3ccc(O)cc3)oc12` [Bilobetin] are 230.49 Å² and 221.44 Å². As for `COc1ccc(CC2c3cc(Oc4cc(CC5c6cc(O)c(OC)cc6CCN5C)ccc4O)c(OC)cc3CCN2C)cc1` (stereo not given) [Isoliensinine], the collision cross section by setting is: (ion adduct: [M+H]+) 238.39 Å²; (ion adduct: [M-H]-) 232.33 Å².

For the compound `CC1(C)C=Cc2c(ccc3c2OC[C@@H](c2ccc(O)cc2O)C3)O1` [Glabridin], the collision cross section reads like this: (ion adduct: [M+H]+) 180.63 Å²; (ion adduct: [M-H]-) 184.46 Å². For `COc1c(O)c(C)cc2c1C(=O)c1c(O)cccc1C2=O` [Obtusifolin] the same measures were 158.75 Å² and 160.85 Å².
